Values after ≈ are worked out from the molar mass of the structure shown. Values joined by “and” are separate entries in the source; they are usually repeats but may differ in a detail not shown here. Equal values may be shown once. Read-outs that look alike come from different tables or passages of the source.
Legend:
[1] = Cell viability, XTT assay; assay type: cell-based; conditions: human, HaCaT keratinocyte cells
Description: Human keratinocytes (HaCaT) cells were purchased from Sigma Aldrich Co. (St. Louis, MO, USA) and cultured in Dulbecco’s modified Eagle’s medium (DMEM; Life Technologies; Gaithersburg, MD, USA) with 10% fetal bovine serum (Gibico; Grand Island, NY, USA) at 37 °C in the presence of 5% CO2. The cell viability of HaCaT treated with or without OA and its derivatives was measured by the XTT assay according to manufacturer’s instructions (XTT Cell proliferation Kit II; Roche, USA). Briefly, HaCaT cells were seeded in 96-well plates at 5 × 10^3 cells per well and allowed to attach for 12 h. Then OA and its derivatives (100 µL; 10 µg/mL) were incubated with cells for 24 h, followed by adding the XTT reagent (50 µL; 0.3 mg/mL) in each well and incubated for 4 h. The absorbance of each well was measured at wavelengths of 450 nm using a SpectraMax M2 plate reader (Molecular Devices; Sunnyvale, CA, USA).

bovine testicular HAase = target: T1, bovine testicular HAase (Bos taurus, UniProt Q2YDK3); assay: Hyaluronidase inhibition assay; assay type: biochemical; conditions: for inhibition at 40 µg/mL: read-out: Inhibition (%) of HAase enzyme activity; for IC50 on HAase enzyme activity: nonlinear regression of inhibition rates at five concentrations (1-40 µg/mL)
T1 sequence (Q2YDK3 36-553): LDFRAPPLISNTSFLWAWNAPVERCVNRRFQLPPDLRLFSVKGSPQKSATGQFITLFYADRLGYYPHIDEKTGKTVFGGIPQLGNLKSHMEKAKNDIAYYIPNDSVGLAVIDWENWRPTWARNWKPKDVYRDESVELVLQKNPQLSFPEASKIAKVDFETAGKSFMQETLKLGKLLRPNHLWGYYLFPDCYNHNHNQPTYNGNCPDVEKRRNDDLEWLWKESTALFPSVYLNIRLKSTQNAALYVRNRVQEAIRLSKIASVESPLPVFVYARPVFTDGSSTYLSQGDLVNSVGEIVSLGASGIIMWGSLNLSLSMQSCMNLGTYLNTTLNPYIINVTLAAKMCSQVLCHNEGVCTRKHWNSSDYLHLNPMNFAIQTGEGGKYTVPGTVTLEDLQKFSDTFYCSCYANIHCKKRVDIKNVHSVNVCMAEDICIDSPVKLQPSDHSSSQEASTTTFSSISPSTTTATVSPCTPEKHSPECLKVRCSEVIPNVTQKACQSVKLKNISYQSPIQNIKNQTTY
Description: Inhibitory effect on bovine testicular HAase activity was evaluated using a reported method with minor modifications. It is noted that long HA chains and HAase may form of non-active complexes at low ionic condition, which can impede the catalytic activity of HAase and disrupt the HAase inhibition assay. This interference can be avoided by adding a positively charged protein to balance the ionic strength of the reaction system and recover the activity of HAase[24]. […] […] Then hyaluronic acid (HA; 100 μL) was added to the pre-incubated mixture at 37 °C for 45 min. […] The absorbance was then measured at a wavelength of 600 nm using a microplate reader (SpectraMax M2, Molecular Devices Corp., operated by SoftmaxPro v.4.6 software, Sunnyvale, CA, USA). Each sample was tested at least in three replicates. […] The IC50 value of each sample was determined by analysing its inhibition rates at different concentrations with a nonlinear regression algorithm by GraphPad Prism.

HaCaT cells = assay: Cellular reactive oxygen species (ROS), H2O2-induced, DCFDA probe; assay type: cell-based, human; conditions: 10 µg/mL for 24 h, then H2O2 200 µM for 1 h
Description: HaCaT cells were seeded in 96-well plates at 6 × 10^3 cells per well and allowed to attach for 12 h. Then the cells were incubated with test samples (10 µg/mL) for 24 h. Next, the cell culture medium was removed and fresh phosphate buffer solution (PBS; 100 µL) containing a fluorescent probe 2′,7′-dichlorofluorescin diacetate (DCFDA; 20 µM) was added to the cells and incubated for 20 min. Then the cells were treated with H2O2 (100 µL; 200 µM) for 1 h followed by measuring the fluorescence intensity of each well with excitation and emission wavelengths of 485 and 525 nm, respectively, using a SpectraMax M2 plate reader.

HAase = assay: Lineweaver-Burk plot, enzyme kinetics of HAase inhibition; assay type: biochemical, bovine; conditions: four concentrations (5–40 µg/mL); HA 0.125–2.0 µM (6c), 0.2–1.0 µM (6g)
Description: The inhibition type of test compounds was determined by the Lineweaver-Burk plots.

Row | Inhibition (%) of HAase enzyme activity (bovine testicular HAase; at 40 μg/mL) | IC50 on HAase enzyme activity (bovine testicular HAase) [µg/mL] | SMILES | other results
1 | 100.9 ± 4.3% | 16.23 (≈ 28.3 µM) | CC1(C)CCC2(C(=O)O)CCC3(C)C(=CCC4C5(C)Cc6c([nH]c7c([N+](=O)[O-])cccc67)C(C)(C)C5CCC43C)C2C1 (stereo not shown) [Compound 6a] | 
2 | 100.2% and 100.4 ± 2.4% | 12.58 (≈ 23 µM) | CC1(C)CCC2(C(=O)O)CCC3(C)C(=CCC4C5(C)Cc6c([nH]c7c(F)cccc67)C(C)(C)C5CCC43C)C2C1 (stereo not shown) [Compound 6b] | 
3 | 86.3 ± 3.3% | 9.97 (≈ 17.7 µM) | CC1(C)CCC2(C(=O)O)CCC3(C)C(=CCC4C5(C)Cc6c([nH]c7c(F)cc(F)cc67)C(C)(C)C5CCC43C)C2C1 (stereo not shown) [Compound 6c] | decrease of ROS level vs H2O2-exposed cells (HaCaT cells): 23.6%; Inhibition type (Lineweaver-Burk plot) (HAase): mixed type of competitive and non-competitive inhibitions
4 | 93.5 ± 3.9% | 11.62 (≈ 20.9 µM) | Cc1cc(C)c2[nH]c3c(c2c1)CC1(C)C(CCC2(C)C1CC=C1C4CC(C)(C)CCC4(C(=O)O)CCC12C)C3(C)C (stereo not shown) [Compound 6d] | 
5 | 83.7 ± 3.3% | 11.60 (≈ 19.1 µM) | CC1(C)CCC2(C(=O)O)CCC3(C)C(=CCC4C5(C)Cc6c([nH]c7ccc(Br)cc67)C(C)(C)C5CCC43C)C2C1 (stereo not shown) [Compound 6e] | 
6 | 100.6 ± 3.6% | 10.14 (≈ 16.7 µM) | CC1(C)CCC2(C(=O)O)CCC3(C)C(=CCC4C5(C)Cc6c([nH]c7c(Br)cccc67)C(C)(C)C5CCC43C)C2C1 (stereo not shown) [Compound 6f] | 
7 | 98.1 ± 0.4% | 9.57 (≈ 17 µM) | CC1(C)CCC2(C(=O)O)CCC3(C)C(=CCC4C5(C)Cc6c([nH]c7c(Cl)cccc67)C(C)(C)C5CCC43C)C2C1 (stereo not shown) [Compound 6g] | Inhibition type (Lineweaver-Burk plot) (HAase): mixed type of competitive and non-competitive inhibitions

Second part, the molecule before the results:

Row | SMILES | Inhibition (%) of HAase enzyme activity (bovine testicular HAase; at 40 μg/mL) | IC50 on HAase enzyme activity (bovine testicular HAase) [µg/mL] | other results
8 | CC1(C)CC[C@]2(C(=O)O)CC[C@]3(C)C(=CC[C@@H]4[C@@]5(C)CC[C@H](O)C(C)(C)[C@@H]5CC[C@]43C)[C@@H]2C1 [Compound 1, Oleanolic acid, reference compound] |  |  | viability at 24 h, 10 µg/mL [1]: 96.7%; inhibition at 40 µg/mL (bovine testicular HAase): 59.3 ± 2.4%
9 | CC1(C)CC[C@]2(C(=O)O)CC[C@]3(C)C(=CCC4[C@@]5(C)CCC(=O)C(C)(C)C5CC[C@]43C)C2C1 (stereo partly shown) [Compound 2] |  |  | inhibition at 40 µg/mL (bovine testicular HAase): 15.9 ± 4.3%
10 | CC1(C)CCC23CC[C@]4(C)C(OC2=O)(C(F)CC2[C@@]5(C)CC[C@H](O)C(C)(C)C5CC[C@]24C)C3C1 (stereo partly shown) [Compound 3] |  |  | inhibition at 40 µg/mL (bovine testicular HAase; at 40 μg/mL): 12.7 ± 3.9%
11 | CC1(C)CCC23CC[C@]4(C)C(OC2=O)(C(F)CC2[C@@]5(C)CCC(=O)C(C)(C)C5CC[C@]24C)C3C1 (stereo partly shown) [Compound 4] |  |  | inhibition at 40 µg/mL (bovine testicular HAase; at 40 μg/mL): 37.3 ± 1.4%

From publication PMC8317927 (Journal of Enzyme Inhibition and Medicinal Chemistry, 2021)
